pIC50: −log10 of the molar value. Several values for one entry are separate records, joined by “and”; a condition that tells them apart may be missing. Equal entries are not always repeated.
What was measured:
Conditions in all cases: average where tested multiple times
hBCAT1 = molecular target: T1, hBCAT1 (Homo sapiens, UniProt P54687); assay: BCAT1 in vitro enzyme inhibition assay (resazurin/diaphorase-coupled fluorescence); type: biochemical
T1 sequence (P54687 1-386): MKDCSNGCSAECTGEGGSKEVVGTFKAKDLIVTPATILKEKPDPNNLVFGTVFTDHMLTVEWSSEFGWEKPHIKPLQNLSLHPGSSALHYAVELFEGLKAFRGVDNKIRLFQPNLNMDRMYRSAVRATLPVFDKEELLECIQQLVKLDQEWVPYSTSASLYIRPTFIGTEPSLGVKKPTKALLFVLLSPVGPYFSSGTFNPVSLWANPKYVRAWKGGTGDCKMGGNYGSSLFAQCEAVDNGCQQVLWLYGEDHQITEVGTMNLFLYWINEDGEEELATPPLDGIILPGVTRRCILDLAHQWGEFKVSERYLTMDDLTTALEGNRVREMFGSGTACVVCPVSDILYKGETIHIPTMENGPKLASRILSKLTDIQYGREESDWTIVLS
Outline: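 Human BCAT1 activity read by resazurin/diaphorase-coupled fluorescence. Compounds added from 50× DMSO stocks at 1:50, giving 10-point 3-fold titrations from 100 μM top final concentration. Run in technical duplicate; repeat tests averaged.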

BCAT2 [1] = molecular target: T2, BCAT2 (Homo sapiens, UniProt O15382); assay: BCAT2 in vitro enzyme inhibition assay (resazurin/diaphorase-coupled fluorescence); type: biochemical
T2 sequence (O15382 28-392): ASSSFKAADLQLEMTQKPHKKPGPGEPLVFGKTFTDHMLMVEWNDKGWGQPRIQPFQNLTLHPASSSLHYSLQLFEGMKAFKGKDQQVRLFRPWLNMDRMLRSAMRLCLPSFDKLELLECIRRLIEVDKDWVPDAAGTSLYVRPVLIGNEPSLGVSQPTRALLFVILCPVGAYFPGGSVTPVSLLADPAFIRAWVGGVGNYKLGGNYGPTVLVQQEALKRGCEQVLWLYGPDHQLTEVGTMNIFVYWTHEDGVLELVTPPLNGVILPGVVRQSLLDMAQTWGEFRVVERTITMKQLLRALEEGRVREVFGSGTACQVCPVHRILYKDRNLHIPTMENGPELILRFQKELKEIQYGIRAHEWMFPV
Outline: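 Coupled fluorescence readout: glutamate formed from L-leucine/α-ketoglutarate transamination drives GDH/NAD/diaphorase reduction of resazurin (Ex 540/Em 590). Human BCAT2 was first exposed 1 h at room temperature to compound, top final 100 μM in 3-fold, 10-point series; substrate reaction ran 1 h before SDS quench, in technical duplicate with DMSO max and enzyme-free min controls.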

BCAT2 [2] = molecular target: T2, BCAT2; assay: BCAT2 in vitro cell inhibition using engineered A549 cells (KMV cell assay, 13C6-KMV by LC-MS/MS); type: cell-based; parameters: The result was an engineered A549 cell line that expressed endogenous BCAT2; endogenous in cells; host or cells: A549 cells with MUT and BCAT1 knocked out by CRISPR/CAS9; key to BCAT2 Cell Inhibition: A: less than or equal to 0.100 μM; B: greater than 0.100 and less than or equal to 0.500 μM; C: greater than 0.500 and less than or equal to 1.000 μM; d: greater than 1.000 μM; E: no fit

SMILES	pIC50 (hBCAT1)	pIC50 (BCAT2 [1])	pIC50 (BCAT2 [2])	BCAT2 Cell Inhibition (BCAT2 [2])
Cc1nc(-c2cc3c(cn2)nc(CC(C)C)n3[C@@H]2CCC[C@H](NC(=O)c3ncc(Cl)s3)C2)cs1 [Example 158, 5-chloro-N-((1S,3R)-3-(2-isobutyl-6-(2-methylthiazol-4-yl)-1H-imidazo[4,5-c]pyridin-1-yl)cyclohexyl)thiazole-2-carboxamide]	5.30 to 6.00	≥ 7.00	< 6.00	
CC(C)Cc1nc2cnc(-c3cscn3)cc2n1[C@@H]1CCC[C@H](NC(=O)c2ncc(Cl)s2)C1 [Example 159, 5-chloro-N-((1S,3R)-3-(2-isobutyl-6-(thiazol-4-yl)-1H-imidazo[4,5-c]pyridin-1-yl)cyclohexyl)thiazole-2-carboxamide]	> 6.30	≥ 7.00	6.30 to 7.00	
CC(C)Cc1nc2cnc(-c3cccc(F)n3)cc2n1[C@@H]1CCC[C@H](NC(=O)c2ncc(Cl)s2)C1 [Example 160, 5-chloro-N-((1S,3R)-3-(6-(6-fluoropyridin-2-yl)-2-isobutyl-1H-imidazo[4,5-c]pyridin-1-yl)cyclohexyl)thiazole-2-carboxamide]	6.00 to 6.30	≥ 7.00	6.00 to 6.30	
Cc1cccnc1-c1cc2c(cn1)nc(-c1ccccc1F)n2[C@@H]1CCC[C@H](NC(=O)c2ncc(Cl)s2)C1 [Example 161, 5-chloro-N-((1S,3R)-3-(2-(2-fluorophenyl)-6-(3-methylpyridin-2-yl)-1H-imidazo[4,5-c]pyridin-1-yl)cyclohexyl)thiazole-2-carboxamide]	5.30 to 6.00	≥ 7.00	6.30 to 7.00	
CC(C)(C)Cc1nc2cnc(-c3nc[nH]n3)cc2n1[C@@H]1CCC[C@H](NC(=O)c2ncc(Cl)s2)C1 [Example 162, 5-chloro-N-((1S,3R)-3-(2-neopentyl-6-(1H-1,2,4-triazol-3-yl)-1H-imidazo[4,5-c]pyridin-1-yl)cyclohexyl)thiazole-2-carboxamide]	> 6.30	≥ 7.00	≥ 7.00	
CC(C)Cc1nc2cnc(-c3nccs3)cc2n1[C@@H]1CCC[C@H](NC(=O)c2ncc(Cl)s2)C1 [Example 163, 5-chloro-N-((1S,3R)-3-(2-isobutyl-6-(thiazol-2-yl)-1H-imidazo[4,5-c]pyridin-1-yl)cyclohexyl)thiazole-2-carboxamide]	> 6.30	≥ 7.00	≥ 7.00	
CC(C)Cc1nc2cnc(-c3ncnn3C)cc2n1[C@@H]1CCC[C@H](NC(=O)c2ncc(Cl)s2)C1 [Example 164, 5-chloro-N-((1S,3R)-3-(2-isobutyl-6-(1-methyl-1H-1,2,4-triazol-5-yl)-1H-imidazo[4,5-c]pyridin-1-yl)cyclohexyl)thiazole-2-carboxamide]	< 5.30	6.30 to 7.00 and 6.00 to 6.30	6.30 to 7.00	E
Cc1nc(-c2cc3c(cn2)nc(CC(C)C)n3[C@@H]2CCC[C@H](NC(=O)c3ncc(Cl)s3)C2)n[nH]1 [Example 165, 5-chloro-N-((1S,3R)-3-(2-isobutyl-6-(5-methyl-1H-1,2,4-triazol-3-yl)-1H-imidazo[4,5-c]pyridin-1-yl)cyclohexyl)thiazole-2-carboxamide]	> 6.30	≥ 7.00	≥ 7.00	
CC(C)[C@H](N)c1nc2cnc(-c3ccccn3)cc2n1[C@@H]1CCC[C@H](NC(=O)c2ncc(Cl)s2)C1 [Example 166, N-((1S,3R)-3-(2-((S)-1-amino-2-methylpropyl)-6-(pyridin-2-yl)-1H-imidazo[4,5-c]pyridin-1-yl)cyclohexyl)-5-chlorothiazole-2-carboxamide]	> 6.30	≥ 7.00	6.30 to 7.00	
O=C(N[C@H]1CCC[C@@H](n2c(-c3ccccc3F)nc3cnc(-c4cc(F)ccn4)cc32)C1)c1ncc(Cl)s1 [Example 168, 5-chloro-N-((1S,3R)-3-(2-(2-fluorophenyl)-6-(4-fluoropyridin-2-yl)-1H-imidazo[4,5-c]pyridin-1-yl)cyclohexyl)thiazole-2-carboxamide]	> 6.30	≥ 7.00	≥ 7.00	
O=C(N[C@H]1CCC[C@@H](n2c(-c3ccccc3F)nc3cnc(-c4ncccc4F)cc32)C1)c1ncc(Cl)s1 [Example 169, 5-chloro-N-((1S,3R)-3-(2-(2-fluorophenyl)-6-(3-fluoropyridin-2-yl)-1H-imidazo[4,5-c]pyridin-1-yl)cyclohexyl)thiazole-2-carboxamide]	> 6.30	≥ 7.00	≥ 7.00	
O=C(N[C@H]1CCC[C@@H](n2c(-c3ccccc3F)nc3cnc(-c4ccc(F)cn4)cc32)C1)c1ncc(Cl)s1 [Example 170, 5-chloro-N-((1S,3R)-3-(2-(2-fluorophenyl)-6-(5-fluoropyridin-2-yl)-1H-imidazo[4,5-c]pyridin-1-yl)cyclohexyl)thiazole-2-carboxamide]	> 6.30	≥ 7.00	≥ 7.00	
CC(C)[C@H](O)c1nc2cnc(-c3ncccn3)cc2n1[C@@H]1CCC[C@H](NC(=O)c2ncc(Cl)s2)C1 [Example 171, 5-chloro-N-((1S,3R)-3-(2-((S)-1-hydroxy-2-methylpropyl)-6-(pyrimidin-2-yl)-1H-imidazo[4,5-c]pyridin-1-yl)cyclohexyl)thiazole-2-carboxamide]	> 6.30	≥ 7.00	< 6.00	
CC(C)[C@@H](O)c1nc2cnc(-c3ncccn3)cc2n1[C@@H]1CCC[C@H](NC(=O)c2ncc(Cl)s2)C1 [Example 172, 5-chloro-N-((1S,3R)-3-(2-((R)-1-hydroxy-2-methylpropyl)-6-(pyrimidin-2-yl)-1H-imidazo[4,5-c]pyridin-1-yl)cyclohexyl)thiazole-2-carboxamide]	> 6.30	≥ 7.00	6.00 to 6.30	
C=Cc1csc(C(=O)N[C@H]2CCC[C@@H](n3c(-c4ccccc4F)nc4cnc(-c5nc[nH]n5)cc43)C2)n1 [Example 173, N-((1S,3R)-3-(2-(2-fluorophenyl)-6-(1H-1,2,4-triazol-3-yl)-1H-imidazo[4,5-c]pyridin-1-yl)cyclohexyl)-4-vinylthiazole-2-carboxamide]	5.30 to 6.00	≥ 7.00	6.00 to 6.30	
O=C(N[C@H]1CCC[C@@H](n2c(-c3ncccc3F)nc3cnc(-c4nc[nH]n4)cc32)C1)c1ncc(Cl)s1 [Example 175, 5-chloro-N-((1S,3R)-3-(2-(3-fluoropyridin-2-yl)-6-(1H-1,2,4-triazol-3-yl)-1H-imidazo[4,5-c]pyridin-1-yl)cyclohexyl)thiazole-2-carboxamide]	> 6.30	≥ 7.00	≥ 7.00	
O=C(N[C@H]1CCC[C@@H](n2c(-c3ccccc3F)nc3cnc(-c4ccncc4)cc32)C1)c1ncc(Cl)s1 [Example 178, 5-chloro-N-((1S,3R)-3-(2-(2-fluorophenyl)-6-(pyridin-4-yl)-1H-imidazo[4,5-c]pyridin-1-yl)cyclohexyl)thiazole-2-carboxamide]	6.00 to 6.30	≥ 7.00	6.30 to 7.00	
COc1cccc(-c2cc3c(cn2)nc(-c2ccccc2F)n3[C@@H]2CCC[C@H](NC(=O)c3ncc(Cl)s3)C2)n1 [Example 179, 5-chloro-N-((1S,3R)-3-(2-(2-fluorophenyl)-6-(6-methoxypyridin-2-yl)-1H-imidazo[4,5-c]pyridin-1-yl)cyclohexyl)thiazole-2-carboxamide]	> 6.30	≥ 7.00	≥ 7.00	

— US20260159512A1, “BCAT2 INHIBITORS” (AGIOS PHARMACEUTICALS, INC., priority 2021, published 2026)
